{
  "source": "patent US20250212892A1",
  "about": "“USE OF THERMALLY HYDROLYZED KERATIN PEPTIDE SOLUTION IN ENHANCING THE YIELD AND QUALITY OF TEA LEAVES” (CH Biotech R&D Co., Ltd., priority 2023, published 2025)",
  "tested_on": "tea tree (Camellia Sinesis)",
  "experiment": "Spring application (soil infusion, then leaf spray twice): tea shoot production and proportion of terminal facing leaves",
  "format": "in vivo",
  "conditions": "urea 200× dilution",
  "description": "The inventors defined a unit area of 30×30 cm^2 for harvesting tea shoot and measuring weights. The inventors further defined a percentage value of cease-growing bud weight relative to the total bud weight, as indication of the increased tea leaf production without advancing the bud-aging side-effect.\nOne of the experiments involves first soil infusion application one week after initial harvesting, then leaf-spraying of KHP-1 500× solution twice, first time at the one-bud-with-one-leaf stage and second time at one-bud-with-two-leaf stage. In addition to a CK group, another urea application group of 200× dilution (200 kg of water to 1 kg of urea) is also tabulated. The result is shown in FIG. 1A where the tea shoot's production for the KHP-1 500× group is 32.54 g in a 900 cm^2 harvest area, higher than that of the CK group (20.86 g) and urea group (28.69 g).\nThis is reflected in FIG. 1B.",
  "data": [
    {"smiles": "NC(N)=O", "note": "[urea]", "values": [
      {"measurement": "tea shoot's production", "setting": "900 cm^2 harvest area, FIG. 1A", "value": 28.69, "unit": "g"},
      {"measurement": "proportion of terminal facing leaves", "setting": "FIG. 1B", "value": 47.4, "unit": "%"}
    ]}
  ]
}
